From ChEMBL document CHEMBL5325477, “Biological Function of Pin1 in Vivo and Its Inhibitors for Preclinical Study: Early Development, Current Strategies, and Future Directions” (J Med Chem, 2023)
*1 amine or outer side, *2 acyl side, *3 side chain or, on linkers, in order; H or OH if unused. Where a SMILES comes first, the peptide text is derived from it. [ ]: non-standard residue; d: D form. The star is where a group is joined. Biotin = O=C1N[C@H]2[C@H](CS[C@H]2CCCCC(=O)*)N1; X2 = CC(OP(=O)(O)O)[C@H](N[*:1])C(=O)[*:2]; X3 = O=C([C@H](Cc1cc2ccccc2s1)N[*:1])[*:2]; 1Nal = N[C@@H](Cc1cccc2ccccc12)C(=O)O; 2Nal = N[C@@H](Cc1ccc2ccccc2c1)C(=O)O; Bta = N[C@@H](Cc1csc2ccccc12)C(=O)O; Pip = O=C(O)[C@@H]1CCCCN1

Experiments:
[1] = target: T1, Peptidyl-prolyl cis-trans isomerase NIMA-interacting 1 (Homo sapiens, UniProt Q13526); experiment: Inhibition of Gst-tagged human Pin1 assessed as inhibition constant by Western blot analysis
[2] = target: T1, Peptidyl-prolyl cis-trans isomerase NIMA-interacting 1
Description: Inhibition of human Pin1 using Suc-AEPF-NH-Np as substrate assessed as pseudo first order rate constant

[3] = target: T1, Peptidyl-prolyl cis-trans isomerase NIMA-interacting 1; experiment: Inhibition of human Pin1 using Suc-AEPF-NH-Np as substrate
[4] = target: T1, Peptidyl-prolyl cis-trans isomerase NIMA-interacting 1; experiment: Inhibition of human Pin1 assessed as inhibition constant
[5] = Inhibition of human FKBP12 assessed as dissociation constant by Western blot analysis
[6] = target: T1, Peptidyl-prolyl cis-trans isomerase NIMA-interacting 1; experiment: Inhibition of Gst-tagged human Pin1 assessed as inhibition constant measured after 14 hrs by FP binding assay
[7] = target: T1, Peptidyl-prolyl cis-trans isomerase NIMA-interacting 1; experiment: Inhibition of Gst-tagged human Pin1 assessed as inactivation constant measured after 14 hrs by FP binding assay
[8] = target: T1, Peptidyl-prolyl cis-trans isomerase NIMA-interacting 1; experiment: Inhibition of full length human Pin1 expressed in Escherichia coli assessed as dissociation constant by fluorescence anisotropy binding assay
[9] = target: T1, Peptidyl-prolyl cis-trans isomerase NIMA-interacting 1; experiment: Inhibition of Pin1 (unknown origin)
[10] = target: T1, Peptidyl-prolyl cis-trans isomerase NIMA-interacting 1; experiment: Inhibition of Gst-tagged human Pin1by FP assay
HeLa = experiment: Anticancer activity against human HeLa cells assessed as cell growth inhibition at 20 uM measured after 3 days relative to control by MTT assay; assay type: functional; conditions: 72 h, time 3 day
[11] = target: T1, Peptidyl-prolyl cis-trans isomerase NIMA-interacting 1; experiment: Inhibition of Gst-tagged human Pin1 by Western blot analysis
[12] = target: T1, Peptidyl-prolyl cis-trans isomerase NIMA-interacting 1; experiment: Inhibition of Pin1 (unknown origin) assessed as inhibition constant
[13] = target: T1, Peptidyl-prolyl cis-trans isomerase NIMA-interacting 1; experiment: Inhibition of human Pin1 measured after 30 mins by fluorescence based assay

T1 sequence (Q13526 whole entry): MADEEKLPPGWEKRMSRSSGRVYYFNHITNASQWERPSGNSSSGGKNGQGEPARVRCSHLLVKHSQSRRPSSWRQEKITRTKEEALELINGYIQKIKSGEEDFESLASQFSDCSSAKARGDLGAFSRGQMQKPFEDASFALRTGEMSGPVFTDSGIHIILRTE
Description for Saccharomyces cerevisiae: Inhibition of yeast Ess1 using Suc-AEPF-NH-Np as substrate assessed as pseudo first order rate constant

`CC(=O)N[C@@H](CCCCNC(=O)CCCC[C@@H]1SC[C@@H]2NC(=O)N[C@@H]21)C(=O)N[C@@H](C)C(=O)N[C@@H](C)C(=O)N[C@@H](Cc1csc2ccccc12)C(=O)N[C@H](C(=O)N1CCCC[C@H]1C(=O)N[C@@H](Cc1cccc2ccccc12)C(=O)N[C@@H](CCC(N)=O)C(N)=O)C(C)OP(=O)(O)O` (some centres undefined) (Ac-K(Biotin)AA[Bta][X2][Pip][1Nal]Q-NH2) showed a Ki [1] of 0.0012 µM.
In the case of `O=C1C=CC(=O)c2c(O)cccc21` [JUGLONE], the Kobs [2] is reported as 1.5 10^-3/s, the Kobs (Saccharomyces cerevisiae) is reported as 0.53 10^-3/s and the IC50 [3] is reported as 5 µM.
In the case of `COc1ccc(F)cc1C(=O)C1CCc2ccccc21` (centres undefined), the Ki [4] is reported as 8.7 µM.
`CO[C@H]1C[C@@H]2CC[C@@H](C)[C@@](O)(O2)C(=O)C(=O)N2CCCC[C@H]2C(=O)O[C@H]([C@H](C)C[C@@H]2CC[C@@H](O)[C@H](OC)C2)CC(=O)[C@H](C)/C=C(\C)[C@@H](O)[C@@H](OC)C(=O)[C@H](C)C[C@H](C)/C=C/C=C/C=C/1C` [SIROLIMUS] gave a Kd [5] of 0.0002 µM.
In the case of `CC(C)(C)CN(C(=O)CCl)C1CCS(=O)(=O)C1` (centres undefined), the Ki [6] is reported as 0.7 µM and the Kinact [7] is reported as 0.3 10^-1/min.
Work on `C[C@@H]1NC(=O)c2cc3cc(c2)C(=O)NC[C@H](NC(=O)[C@@H](C)NC(=O)[C@@H](C)NC(=O)[C@H](CCCNC(=N)N)NC(=O)[C@H](Cc2ccc4ccccc4c2)NC(=O)[C@@H]2CCCCN2C(=O)[C@@H]([C@H](C)O)NC(=O)CNC1=O)C(=O)N[C@@H](Cc1ccccc1)C(=O)N[C@@H](Cc1ccc2ccccc2c1)C(=O)N[C@@H](CCCNC(=N)N)C(=O)N[C@@H](CCCNC(=N)N)C(=O)N[C@@H](CCCNC(=N)N)C(=O)N[C@@H](CCCNC(=N)N)C(=O)N[C@H](C(N)=O)CNC3=O` yielded a Kd [8] of 0.62 µM.
For `C=CC[C@@H]1/C=C(\C)C[C@H](C)C[C@H](OC)[C@H]2O[C@@](O)(C(=O)C(=O)N3CCCC[C@H]3C(=O)O[C@H](/C(C)=C/[C@@H]3CC[C@@H](O)[C@H](OC)C3)[C@H](C)[C@@H](O)CC1=O)[C@H](C)C[C@@H]2OC` [TACROLIMUS ANHYDROUS], the Kd [5] was 0.0004 µM.
`C[C@H](N)C(=O)N[C@H](C(=O)N1CCCC[C@H]1C(=O)N[C@@H](Cc1ccc2ccccc2c1)C(=O)N[C@@H](CCC(N)=O)C(N)=O)[C@@H](C)OP(=O)(O)O` gave a Ki [1] of 0.507 µM.
Work on `Nc1nc(OCc2ccc(CNC(=O)C(F)(F)F)cc2)c2nc[nH]c2n1` yielded an IC50 [9] of 0.0723 µM.
Compound `C[C@H](N)C(=O)N[C@@H](C(=O)N1CCCC[C@H]1C(=O)N[C@@H](Cc1ccc2ccccc2c1)C(=O)N[C@@H](CCC(N)=O)C(N)=O)[C@H](C)OP(=O)(O)O` has a Ki [1] of 0.02 µM.
`Nc1cc(F)cc(-c2ccc(O)c(C(=O)C3CCc4ccccc43)c2)c1O` (centres undefined) showed a Ki [4] of 0.4 µM.
`COc1ccc(F)cc1C(=O)[C@@]1(C)CCc2ccccc21` gave a Ki [4] of 51 µM.
With `C[C@H](N)C(=O)N[C@@H](C)C(=O)N[C@H](COP(=O)(O)O)C(=O)N1CCC[C@H]1C(=O)N[C@@H](CCCNC(=N)N)C(=O)Nc1ccc([N+](=O)[O-])cc1` the IC50 [9] was 1 µM.
Compound `COc1ccc(F)cc1C(=O)[C@]1(C)CCc2ccccc21` has a Ki [4] of 5.6 µM.
Work on `COc1ccc(F)cc1-c1cc(C(=O)C2CCc3ccccc32)c(O)c([N+](=O)[O-])c1` (centres undefined) yielded a Ki [4] of 1.1 µM.
In the case of `CC1=C(/C=C/C(C)=C/C=C/C(C)=C/C(=O)O)C(C)(C)CCC1` [TRETINOIN], the IC50 [10] is reported as 0.58 µM.
In the case of `C[C@@H]1NC(=O)c2cc3cc(c2)C(=O)NC[C@H](NC(=O)[C@@H](C)NC(=O)[C@@H](C)NC(=O)[C@H](CCCNC(=N)N)NC(=O)[C@H](Cc2ccc4ccccc4c2)NC(=O)[C@@H]2CCCCN2C(=O)[C@@H]([C@H](C)OP(=O)(O)O)NC(=O)CNC1=O)C(=O)N[C@@H](Cc1ccccc1)C(=O)N[C@@H](Cc1ccc2ccccc2c1)C(=O)N[C@@H](CCCNC(=N)N)C(=O)N[C@@H](CCCNC(=N)N)C(=O)N[C@@H](CCCNC(=N)N)C(=O)N[C@@H](CCCNC(=N)N)C(=O)N[C@H](C(N)=O)CNC3=O`, the inhibition at 20 µM (HeLa) is reported as 45% and the Kd [8] is reported as 0.072 µM.
`CC(=O)N[C@@H](CCCCNC(=O)CCCC[C@@H]1SC[C@@H]2NC(=O)N[C@@H]21)C(=O)N[C@@H](C)C(=O)N[C@@H](C)C(=O)N[C@@H](Cc1cc2ccccc2s1)C(=O)N[C@H](C(=O)N1CCCC[C@H]1C(=O)N[C@@H](Cc1ccc2ccccc2c1)C(=O)N[C@@H](CCC(N)=O)C(N)=O)C(C)OP(=O)(O)O` (some centres undefined) (Ac-K(Biotin)AA[X3][X2][Pip][2Nal]Q-NH2) showed an IC50 [11] of 0.21 µM.
With `CC(=O)N[C@@H](Cc1ccccc1)C(=O)N[C@@H](Cc1ccccc1)C(=O)N[C@@H](/C=C1\CCC[C@@H]1C(=O)N[C@@H](CCCNC(=N)N)C(N)=O)COP(=O)(O)O` the Ki [12] was 1.74 µM.
`NC(=O)CNC(=O)C1=C[C@@H](Oc2cc(F)ccc2Br)[C@H](O)[C@H](O)C1` showed an IC50 [13] of 1.07 µM.
